Experimental data: patent US7524853B2 (Solvay Pharmaceuticals B.V., priority 2003, dated 2009)

Experiments:
Assay type in all cases: cell-based
[1] = target: T1, 17β-hydroxysteroid dehydrogenase type 1 (17β-HSD type 1) (Homo sapiens, UniProt P14061); assay: Inhibition of 17β-HSD type 1 in MCF-7 cells stably expressing the isoenzyme (tritium labeled estrone conversion, HPLC); settings: MCF7, MCF-7 cells expressing 17β-HSD type 1, 2 nM tritium labeled estrone; for inhibition at 1 µM: 1 μM test compound, read-out: % Inhibition HSD1 1 μM; for inhibition at 10 µM: 10 μM test compound, read-out: % Inhibition HSD1 10 μM
T1 construct: expressed in transfected cells; host or cells: MCF-7
T1 sequence (P14061 1-328): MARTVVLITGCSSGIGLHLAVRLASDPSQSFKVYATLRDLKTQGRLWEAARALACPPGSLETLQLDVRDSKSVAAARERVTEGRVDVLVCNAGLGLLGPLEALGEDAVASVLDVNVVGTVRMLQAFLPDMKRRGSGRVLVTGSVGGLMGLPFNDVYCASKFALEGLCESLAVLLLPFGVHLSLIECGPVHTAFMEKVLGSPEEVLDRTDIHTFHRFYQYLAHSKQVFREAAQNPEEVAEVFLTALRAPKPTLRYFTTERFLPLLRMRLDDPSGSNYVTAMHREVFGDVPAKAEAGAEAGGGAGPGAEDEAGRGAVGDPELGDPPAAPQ
In short: (§1)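 Cells: stable MCF-7 transfectants per isoenzyme. Step one, add compound (two concentrations) plus 2 nM labelled substrate to growth medium. Step two, remove medium at a set time and stop with trichloroacetic acid. Step three, quantify conversion by HPLC with flow scintillation.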

[2] = target: T2, 17β-hydroxysteroid dehydrogenase type 2 (17β-HSD type 2) (Homo sapiens, UniProt P37059); assay: Inhibition of 17β-HSD type 2 in MCF-7 cells stably expressing the isoenzyme (tritium labeled estradiol conversion, HPLC); settings: MCF7, MCF-7 cells expressing 17β-HSD type 2, 2 nM tritium labeled estradiol; for inhibition at 1 µM: 1 μM test compound, read-out: % Inhibition HSD2 1 μM; for inhibition at 10 µM: 10 μM test compound, read-out: % Inhibition HSD2 10 μM
T2 construct: expressed in transfected cells; host or cells: MCF-7
T2 sequence (P37059 1-387): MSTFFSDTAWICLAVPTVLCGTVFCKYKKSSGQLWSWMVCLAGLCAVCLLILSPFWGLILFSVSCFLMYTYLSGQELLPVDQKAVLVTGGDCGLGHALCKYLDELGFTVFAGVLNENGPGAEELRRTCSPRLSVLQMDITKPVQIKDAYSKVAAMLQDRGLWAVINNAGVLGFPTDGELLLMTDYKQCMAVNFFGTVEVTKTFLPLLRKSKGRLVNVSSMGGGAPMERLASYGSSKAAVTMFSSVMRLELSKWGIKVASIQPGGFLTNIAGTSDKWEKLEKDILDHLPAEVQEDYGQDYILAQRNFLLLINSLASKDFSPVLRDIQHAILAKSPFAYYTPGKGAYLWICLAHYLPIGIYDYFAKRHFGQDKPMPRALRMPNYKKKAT
In short: as §1

[3] = target: T3, 17β-hydroxysteroid dehydrogenase type 3 (17β-HSD type 3) (Homo sapiens, UniProt P37058); assay: Inhibition of 17β-HSD type 3 in MCF-7 cells stably expressing the isoenzyme (tritium labeled androstenedione conversion, HPLC); settings: MCF7, MCF-7 cells expressing 17β-HSD type 3, 2 nM tritium labeled androstenedione; for inhibition at 1 µM: 1 μM test compound, read-out: % Inhibition HSD3 1 μM; for inhibition at 10 µM: 10 μM test compound, read-out: % Inhibition HSD3 10 μM
T3 construct: expressed in transfected cells; host or cells: MCF-7
T3 sequence (P37058 1-310): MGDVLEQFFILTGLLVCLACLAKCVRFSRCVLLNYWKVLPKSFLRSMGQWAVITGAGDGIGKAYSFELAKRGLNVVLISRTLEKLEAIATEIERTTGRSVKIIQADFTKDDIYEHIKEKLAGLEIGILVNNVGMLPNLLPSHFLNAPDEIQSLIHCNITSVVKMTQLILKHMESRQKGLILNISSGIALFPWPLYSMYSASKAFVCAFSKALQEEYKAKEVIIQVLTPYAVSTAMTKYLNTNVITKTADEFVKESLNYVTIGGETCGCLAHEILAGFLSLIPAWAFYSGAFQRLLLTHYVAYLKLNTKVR
In short: as §1

SMILES	inhibition at 1 µM [1] [%]	inhibition at 10 µM [1] [%]	inhibition at 1 µM [2] [%]	inhibition at 10 µM [2] [%]	inhibition at 1 µM [3] [%]	inhibition at 10 µM [3] [%]
COc1cccc(-c2nc3sc4c(c3c(=O)n2Cc2ccccc2)CCCC4)c1 [No. 78, 3-Benzyl-2-(m-methoxyphenyl)-5,6,7,8-tetrahydro-3H-benzo[4,5]thieno[2,3-d]pyrimidin-4-one]	7.1	28.5	9.1	7.8	-4.3	27.6
COc1cccc(-c2nc3sc4c(c3c(=O)n2Cc2ccccc2)CCCC4=O)c1 [No. 79, 3-Benzyl-2-(m-methoxyphenyl)-6,7-dihydro-3H,5H-benzo[4,5]thieno[2,3-d]pyrimidine-4,8-dione]	26.6	39.1	34.4	31.6	21.9	59.7
COc1cccc(-c2nc3sc4c(c3c(=O)n2Cc2ccccc2)CCC(Br)C4=O)c1 (stereo not drawn) [No. 80, 3-Benzyl-7-bromo-2-(m-methoxyphenyl)-6,7-dihydro-3H,5H-benzo[4,5]thieno[2,3-d]pyrimidine-4,8-dione]	37	39.3	47.3	51	22.7	35.4
COc1cccc(-c2nc3sc4c(c3c(=O)n2Cc2ccccc2)CCC(Br)(Br)C4=O)c1 [No. 81, 3-Benzyl-7,7-dibromo-2-(m-methoxyphenyl)-6,7-dihydro-3H,5H-benzo[4,5]thieno[2,3-d]pyrimidine-4,8-dione]	33.1	16.8	32.1	35.6	7.8	26.2
COc1cccc(-c2nc3sc4c(O)cccc4c3c(=O)n2Cc2ccccc2)c1 [No. 83, 3-Benzyl-8-hydroxy-2-(m-methoxyphenyl)-3H-benzo[4,5]thieno[2,3-d]pyrimidin-4-one]	25.4	26.3	26.1	60.1	13.5	21
COc1cccc(-c2nc3sc4c(OC(C)=O)cccc4c3c(=O)n2Cc2ccccc2)c1 [No. 84, Acetic acid 3-benzyl-4-oxo-2-(m-methoxyphenyl)-3,4-dihydro-benzo[4,5]thieno[2,3-d]pyrimidin-8-yl ester]	10.2	22.6	26.4	63.6	4	33.5
CCCCn1c(-c2cc(OC)c(OC)c(OC)c2)nc2sc3c(c2c1=O)CCCC3 [No. 85, 3-Butyl-2-(3,4,5-trimethoxyphenyl)-5,6,7,8-tetrahydro-3H-benzo[4,5]thieno[2,3-d]pyrimidin-4-one]	24.1	40.1	21.5	25.4	-2.2	24.4
CCCCn1c(-c2cc(OC)c(OC)c(OC)c2)nc2sc3c(c2c1=O)CCCC3=O [No. 86, 3-Butyl-2-(3,4,5-trimethoxyphenyl)-6,7-dihydro-3H,5H-benzo[4,5]thieno[2,3-d]pyrimidine-4,8-dione]	23.6	46.6	18.9	19.5	11.3	45.7
CCCCn1c(-c2cc(OC)c(OC)c(OC)c2)nc2sc3c(c2c1=O)CCC(Br)C3=O (stereo not drawn) [No. 87, 7-Bromo-3-butyl-2-(3,4,5-trimethoxyphenyl)-6,7-dihydro-3H,5H-benzo[4,5]thieno[2,3-d]pyrimidine-4,8-dione]	26.8	67.4	24.6	23.4	13	31.9
CCCCn1c(-c2cc(OC)c(OC)c(OC)c2)nc2sc3c(c2c1=O)CCC(Br)(Br)C3=O [No. 88, 3-Butyl-7,7-dibromo-2-(3,4,5-trimethoxyphenyl)-6,7-dihydro-3H,5H-benzo[4,5]thieno[2,3-d]pyrimidine-4,8-dione]	25	40.5	25.9	29.9	20.4	23.3
CCCCn1c(-c2cc(OC)c(OC)c(OC)c2)nc2sc3c(O)cccc3c2c1=O [No. 89, 3-Butyl-8-hydroxy-2-(3,4,5-trimethoxyphenyl)-3H-benzo[4,5]thieno[2,3-d]pyrimidin-4-one]	37.7	84.7	31.2	40.1	30.9	80.1
CCCCn1c(-c2cc(OC)c(OC)c(OC)c2)nc2sc3c(O)c(Br)ccc3c2c1=O [No. 90, 7-Bromo-3-butyl-8-hydroxy-2-(3,4,5-trimethoxyphenyl)-3H-benzo[4,5]thieno[2,3-d]pyrimidin-4-one]	15.5	24.7	16.1	22	4	11.3
COc1cc(-c2nc3sc4c(OC)cccc4c3c(=O)n2Cc2ccccc2)c(Br)c(OC)c1OC [No. 91, 3-Benzyl-8-methoxy-2-(2-bromo-3,4,5-trimethoxyphenyl)-3H-benzo[4,5]thieno[2,3-d]pyrimidin-4-one]	21.5	26.1	28.2	33.7	3.7	18.1
O=c1c2c(nc(-c3ccccc3)n1Cc1ccccc1)sc1c(O)c(Br)ccc12 [No. 92, 3-Benzyl-7-bromo-8-hydroxy-2-phenyl-3H-benzo[4,5]thieno[2,3-d]pyrimidin-4-one]	22	23.3	42.7	60.9	4.7	24.3
CC(=O)Oc1c(Br)ccc2c1sc1nc(-c3ccccc3)n(Cc3ccccc3)c(=O)c12 [No. 93, Acetic acid 3-benzyl-7-bromo-4-oxo-2-phenyl-3,4-dihydro-benzo[4,5]thieno[2,3-d]pyrimidin-8-yl ester]	13.3	11.7	43.2	57.7	19.4	26.1
CCCc1nc2sc3c(c2c(=O)n1Cc1ccccc1OC)CCCC3 [No. 94, 3-(2-Methoxybenzyl)-2-propyl-5,6,7,8-tetrahydro-3H-benzo[4,5]thieno[2,3-d]pyrimidin-4-one]	16.5	27.2	25.7	31.5	2.2	21.1
CCCc1nc2sc3c(c2c(=O)n1Cc1ccccc1OC)CCCC3=O [No. 95, 3-(2-Methoxybenzyl)-2-propyl-6,7-dihydro-3H,5H-benzo[4,5]thieno[2,3-d]pyrimidine-4,8-dione]	17	59.6	6.9	31.2	9.9	62.4
CCCc1nc2sc3c(c2c(=O)n1Cc1cc(Br)ccc1OC)CCC(Br)C3=O (stereo not drawn) [No. 96]	19.5	65.1	17.2	21.9	13	37.5
